According to ChEMBL document CHEMBL4665642, “Anticancer profile of newly synthesized BRAF inhibitors possess 5-(pyrimidin-4-yl)imidazo[2,1-b]thiazole scaffold” (Bioorg Med Chem, 2019):

What was measured:
Assay type in all cases: functional
Details in all cases: read-out: Activity
[1] = tested on: CAKI-1; assay: Cytotoxicity against human CAKI-1 cells assessed as cell viability at 10 uM incubated for 48 hrs by sulforhodamine B assay relative to control
[2] = tested on: SF-295; assay: Cytotoxicity against human SF-295 cells assessed as cell viability at 10 uM incubated for 48 hrs by sulforhodamine B assay relative to control
[3] = tested on: TK-10; assay: Cytotoxicity against human TK-10 cells assessed as cell viability at 10 uM incubated for 48 hrs by sulforhodamine B assay relative to control
[4] = tested on: DU-145; assay: Cytotoxicity against human DU-145 cells assessed as cell viability at 10 uM incubated for 48 hrs by sulforhodamine B assay relative to control
[5] = tested on: CCRF-CEM; assay: Cytotoxicity against human CCRF-CEM cells assessed as cell viability at 10 uM incubated for 48 hrs by sulforhodamine B assay relative to control
[6] = tested on: HL-60(TB); assay: Cytotoxicity against human HL-60(TB) cells assessed as cell viability at 10 uM incubated for 48 hrs by sulforhodamine B assay relative to control
[7] = tested on: MDA-MB-231; assay: Cytotoxicity against human MDA-MB-231 cells assessed as cell viability at 10 uM incubated for 48 hrs by sulforhodamine B assay relative to control
[8] = tested on: 786-0; assay: Cytotoxicity against human 786-0 cells assessed as cell viability at 10 uM incubated for 48 hrs by sulforhodamine B assay relative to control
[9] = tested on: ACHN; assay: Cytotoxicity against human ACHN cells assessed as cell viability at 10 uM incubated for 48 hrs by sulforhodamine B assay relative to control
[10] = tested on: IGROV-1; assay: Cytotoxicity against human IGROV-1 cells assessed as cell viability at 10 uM incubated for 48 hrs by sulforhodamine B assay relative to control
[11] = tested on: MDA-MB-435; assay: Cytotoxicity against human MDA-MB-435 cells assessed as cell viability at 10 uM incubated for 48 hrs by sulforhodamine B assay relative to control
[12] = tested on: BT-549; assay: Cytotoxicity against human BT-549 cells assessed as cell viability at 10 uM incubated for 48 hrs by sulforhodamine B assay relative to control
[13] = tested on: NCI-H23; assay: Cytotoxicity against human NCI-H23 cells assessed as cell viability at 10 uM incubated for 48 hrs by sulforhodamine B assay relative to control
[14] = tested on: RPMI-8226; assay: Cytotoxicity against human RPMI-8226 cells assessed as cell viability at 10 uM incubated for 48 hrs by sulforhodamine B assay relative to control
[15] = tested on: OVCAR-3; assay: Cytotoxicity against human OVCAR-3 cells assessed as cell viability at 10 uM incubated for 48 hrs by sulforhodamine B assay relative to control
[16] = tested on: MDA-MB-468; assay: Cytotoxicity against human MDA-MB-468 cells assessed as cell viability at 10 uM incubated for 48 hrs by sulforhodamine B assay relative to control
[17] = tested on: SK-MEL-28; assay: Cytotoxicity against human SK-MEL-28 cells assessed as cell viability at 10 uM incubated for 48 hrs by sulforhodamine B assay relative to control
[18] = tested on: NCI-H322M; assay: Cytotoxicity against human NCI-H322M cells assessed as cell viability at 10 uM incubated for 48 hrs by sulforhodamine B assay relative to control
[19] = tested on: HOP-92; assay: Cytotoxicity against human HOP-92 cells assessed as cell viability at 10 uM incubated for 48 hrs by sulforhodamine B assay relative to control
[20] = tested on: COLO 205; assay: Cytotoxicity against human COLO 205 cells assessed as cell viability at 10 uM incubated for 48 hrs by sulforhodamine B assay relative to control
[21] = tested on: KM12; assay: Cytotoxicity against human KM12 cells assessed as cell viability at 10 uM incubated for 48 hrs by sulforhodamine B assay relative to control
[22] = tested on: HCT-15; assay: Cytotoxicity against human HCT-15 cells assessed as cell viability at 10 uM incubated for 48 hrs by sulforhodamine B assay relative to control
[23] = tested on: SK-OV-3; assay: Cytotoxicity against human SK-OV-3 cells assessed as cell viability at 10 uM incubated for 48 hrs by sulforhodamine B assay relative to control
[24] = tested on: A549; assay: Cytotoxicity against human A549 cells assessed as cell viability at 10 uM incubated for 48 hrs by sulforhodamine B assay relative to control
[25] = tested on: SN12C; assay: Cytotoxicity against human SN12C cells assessed as cell viability at 10 uM incubated for 48 hrs by sulforhodamine B assay relative to control
[26] = tested on: HCT-29; assay: Cytotoxicity against human […] cells assessed as cell viability at 10 uM incubated for 48 hrs by sulforhodamine B assay relative to control
[27] = tested on: OVCAR-8; assay: Cytotoxicity against human OVCAR-8 cells assessed as cell viability at 10 uM incubated for 48 hrs by sulforhodamine B assay relative to control
[28] = tested on: NCI-H226; assay: Cytotoxicity against human NCI-H226 cells assessed as cell viability at 10 uM incubated for 48 hrs by sulforhodamine B assay relative to control
[29] = tested on: NCI/ADR-RES; assay: Cytotoxicity against human NCI/ADR-RES cells assessed as cell viability at 10 uM incubated for 48 hrs by sulforhodamine B assay relative to control
[30] = tested on: K562; assay: Cytotoxicity against human K562 cells assessed as cell viability at 10 uM incubated for 48 hrs by sulforhodamine B assay relative to control
[31] = tested on: PC-3; assay: Cytotoxicity against human PC-3 cells assessed as cell viability at 10 uM incubated for 48 hrs by sulforhodamine B assay relative to control
[32] = tested on: M14; assay: Cytotoxicity against human M14 cells assessed as cell viability at 10 uM incubated for 48 hrs by sulforhodamine B assay relative to control
[33] = tested on: HOP-62; assay: Cytotoxicity against human HOP-62 cells assessed as cell viability at 10 uM incubated for 48 hrs by sulforhodamine B assay relative to control
[34] = tested on: SR; assay: Cytotoxicity against human SR cells assessed as cell viability at 10 uM incubated for 48 hrs by sulforhodamine B assay relative to control
[35] = tested on: LOX IMVI; assay: Cytotoxicity against human LOX IMVI cells assessed as cell viability at 10 uM incubated for 48 hrs by sulforhodamine B assay relative to control
[36] = tested on: SF-268; assay: Cytotoxicity against human SF-268 cells assessed as cell viability at 10 uM incubated for 48 hrs by sulforhodamine B assay relative to control
[37] = tested on: OVCAR-4; assay: Cytotoxicity against human OVCAR-4 cells assessed as cell viability at 10 uM incubated for 48 hrs by sulforhodamine B assay relative to control
[38] = tested on: SNB-19; assay: Cytotoxicity against human SNB-19 cells assessed as cell viability at 10 uM incubated for 48 hrs by sulforhodamine B assay relative to control
[39] = tested on: MCF7; assay: Cytotoxicity against human MCF7 cells assessed as cell viability at 10 uM incubated for 48 hrs by sulforhodamine B assay relative to control
[40] = tested on: SNB-75; assay: Cytotoxicity against human SNB-75 cells assessed as cell viability at 10 uM incubated for 48 hrs by sulforhodamine B assay relative to control
[41] = tested on: NCI-H460; assay: Cytotoxicity against human NCI-H460 cells assessed as cell viability at 10 uM incubated for 48 hrs by sulforhodamine B assay relative to control

O=S(=O)(NCCCNc1nccc(-c2c(-c3cccc(F)c3)nc3sccn23)n1)c1cccc2ccccc12
viability at 10 µM [1]: 29.1%
viability at 10 µM [2]: 34.6%
viability at 10 µM [3]: 71.7%
viability at 10 µM [4]: 49.9%
viability at 10 µM [5]: 38.5%
viability at 10 µM [6]: 53.9%
viability at 10 µM [7]: 4.05%
viability at 10 µM [8]: 52.9%
viability at 10 µM [9]: 34.7%
viability at 10 µM [10]: 22.3%
viability at 10 µM [11]: 22.6%
viability at 10 µM [12]: 65%
viability at 10 µM [13]: 66.2%
viability at 10 µM [14]: 44.9%
viability at 10 µM [15]: 68.7%
viability at 10 µM [16]: 59.3%
viability at 10 µM [17]: 77.5%
viability at 10 µM [18]: 81.6%
viability at 10 µM [19]: 94.6%
viability at 10 µM [20]: 21.5%
viability at 10 µM [21]: 26%
viability at 10 µM [22]: 18.1%
viability at 10 µM [23]: 65.8%
viability at 10 µM [24]: 45.6%
viability at 10 µM [25]: 46.9%
viability at 10 µM [26]: 1.97%
viability at 10 µM [27]: 38.5%
viability at 10 µM [28]: 36.8%
viability at 10 µM [29]: 47.1%
viability at 10 µM [30]: 15.2%
viability at 10 µM [31]: 41.2%
viability at 10 µM [32]: 42.7%
viability at 10 µM [33]: 80.7%
viability at 10 µM [34]: 62%
viability at 10 µM [35]: 20.9%
viability at 10 µM [36]: 44.5%
viability at 10 µM [37]: 40.1%
viability at 10 µM [38]: 69%
viability at 10 µM [39]: 37.4%
viability at 10 µM [40]: 86.5%
viability at 10 µM [41]: 19.9%

O=S(=O)(NCCNc1nccc(-c2c(-c3cccc(F)c3)nc3sccn23)n1)c1cccc2ccccc12
viability at 10 µM [1]: 77.5%
viability at 10 µM [2]: 106%
viability at 10 µM [3]: 112%
viability at 10 µM [4]: 97.8%
viability at 10 µM [5]: 93.9%
viability at 10 µM [6]: 116%
viability at 10 µM [7]: 95%
viability at 10 µM [8]: 95.4%
viability at 10 µM [9]: 80.1%
viability at 10 µM [10]: 61%
viability at 10 µM [11]: 87.7%
viability at 10 µM [12]: 104%
viability at 10 µM [13]: 99.9%
viability at 10 µM [14]: 83.9%
viability at 10 µM [15]: 103%
viability at 10 µM [16]: 86.1%
viability at 10 µM [17]: 123%
viability at 10 µM [18]: 104%
viability at 10 µM [19]: 91.2%
viability at 10 µM [20]: 85%
viability at 10 µM [21]: 85%
viability at 10 µM [22]: 83.6%
viability at 10 µM [23]: 98.5%
viability at 10 µM [24]: 88%
viability at 10 µM [25]: 97.1%
viability at 10 µM [26]: 83.2%
viability at 10 µM [27]: 89.4%
viability at 10 µM [28]: 94.1%
viability at 10 µM [29]: 97.3%
viability at 10 µM [30]: 78.3%
viability at 10 µM [31]: 80.2%
viability at 10 µM [32]: 107%
viability at 10 µM [33]: 110%
viability at 10 µM [34]: 88.1%
viability at 10 µM [35]: 95.7%
viability at 10 µM [36]: 85.6%
viability at 10 µM [37]: 105%
viability at 10 µM [38]: 96.2%
viability at 10 µM [39]: 74.6%
viability at 10 µM [40]: 92.3%
viability at 10 µM [41]: 97.7%
